# Source: patent US11173170B2, “Prebiotic composition and its methods of production” (Optibiotix Limited, priority 2014, dated 2021)
# Key:
# Test in all cases: Anaerobic cultures, gut bacterial groups by fluorescent in situ hybridisation at 24 hours
# Assay type in all cases: cell-based
# Clostridia = settings: for Clostridia count, 24: 24 hours, anaerobic culture, inoculum 7.55; for Clostridia, 24 hr % change: 24 hr vs inoculum
# Description: (§1) In these experiments, anaerobic cultures were tested to evaluate the in vitro utilisation of a novel Lactobacillus reuteri galactooligosaccharide by monitoring the populations of gut bacterial groups at 24 hours using fluorescent in situ hybridisation, and short-chain fatty acid (SCFA). Fructooligosaccharides (FOS), melibiose and raffinose were used as reference carbohydrates.
# Bifidobacteria = test system: Bifidobacteria
# Description: as §1
# Total count = test system: Total count
# Description: as §1
# Lactobacilli = test system: Lactobacilli
# Description: as §1
# E. coli = test system: E. coli
# Description: as §1
# Eubacteria = test system: Eubacteria
# Description: as §1
# Bacteroides = test system: Bacteroides
# Description: as §1
SMILES,"Clostridia count, 24 (Clostridia)","Clostridia, 24 hr % change (Clostridia) [%]","Bifidobacteria count, 24 (Bifidobacteria; 24 hours, anaerobic culture, inoculum 6.85)","Bifidobacteria, 24 hr % change (Bifidobacteria; 24 hr vs inoculum) [%]","Total count, 24 (Total count; 24 hours, anaerobic culture, inoculum 8.84)","Total count, 24 hr % change (Total count; 24 hr vs inoculum) [%]","Lactobacilli count, 24 (Lactobacilli; 24 hours, anaerobic culture, inoculum 7.15)","Lactobacilli, 24 hr % change (Lactobacilli; 24 hr vs inoculum) [%]","E. coli count, 24 (E. coli; 24 hours, anaerobic culture, inoculum 8.14)","E. coli, 24 hr % change (E. coli; 24 hr vs inoculum) [%]","Eubacteria count, 24 (Eubacteria; 24 hours, anaerobic culture, inoculum 8.06)","Eubacteria, 24 hr % change (Eubacteria; 24 hr vs inoculum) [%]","Bacteroides count, 24 (Bacteroides; 24 hours, anaerobic culture, inoculum 7.98)","Bacteroides, 24 hr % change (Bacteroides; 24 hr vs inoculum) [%]"
"OC[C@H]1O[C@H](OCC2O[C@@H](O)[C@H](O)[C@@H](O)[C@@H]2O)[C@H](O)[C@@H](O)[C@H]1O (stereo partly shown) [Melibiose, melibiose]",7.65,101,7.33,107,9.14,103,7.43,104,7.66,94,7.84,97,7.9,99
"OC[C@H]1O[C@H](OC[C@H]2O[C@H](O[C@]3(CO)O[C@H](CO)[C@@H](O)[C@@H]3O)[C@H](O)[C@@H](O)[C@@H]2O)[C@H](O)[C@@H](O)[C@H]1O [Raffinose, raffinose]",7.81,103,–,–,–,–,–,–,–,–,–,–,–,–
